From US12600728B2, “Interleukin-17 inhibitors” (priority 2020, dated 2026)
Read-outs that look alike come from different tables or passages of the source.

What was measured:
[1] = molecular target: recombinant human IL-17AA (Homo sapiens, UniProt Q16552); assay: IL-6 release from NHDF cells, IL-17AA plus TNF-α stimulation; format: cell-based; conditions: 24 hours, IL-6 by ELISA
Protocol: IL-6 Release from NHDF Cells (Normal Human Dermal Fibroblasts)
NHDF cells isolated from normal adult mesoderm, connective tissues were cultured in fibroblast growth medium containing 2% supplement. […] The cells were allowed to adhere overnight before they were incubated with the compound/cytokine cocktail.
Diluted compounds were pre-incubated with recombinant human IL-17AA or IL-17AF plus human TNF-α for 30 minutes at room temperature on a shaker. […] The cells were incubated with the compound/cytokines cocktail for 24 hours at 37° C. (5% CO2). […] The final DMSO or plasma concentrations were 0.1% or 20%, respectively. All compound incubations were done in duplicate. The supernatants were collected to quantify IL-6 by ELISA according to the manufacturers instructions. The optical density was measured at 450 nm by an EnVision Multilabel Plate Reader (Perkin Elmer). The IL-6 levels produced after TNF-α stimulation were subtracted from the IL-6 produced after IL-17/TNF-α co-stimulation. These IL-17-specific IL-6 concentrations were used for […] value calculation.

[2] = molecular target: biotinylated human IL-17A / AF647-labeled human IL-17RA (Homo sapiens, UniProt Q16552); assay: Human IL-17A×IL-17RA TR-FRET assay; format: binding
In short: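 Compounds tested in duplicate at each concentration; neutral controls contain all components with DMSO in place of compound.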

[3] = NHDF cells, IL-17AA 30 pM plus TNF-α 6 pM, read-out: IL17AA + TNF IC50 IL-6
[4] = TR-FRET, biotinylated human IL-17A 5 nM, AF647-labeled human IL-17RA 30 nM, read-out: IL17AA FRET/ IL17Rawt IC50
[5] = NHDF cells, IL-17AA 30 pM + TNF-α 6 pM, reference examples (pyridines), read-out: IL 17AA + TNF IC50 IL-6
[6] = TR-FRET, 5 nM IL-17A, 30 nM IL-17RA, reference examples (pyridines), read-out: IL17AA FRET/ IL17RAwt IC50
[7] = IL17AA + TNF IC50 IL-6, NHDF cells, IL-17AA 30 pM plus TNF-α 6 pM
[8] = IL17AA FRET/ IL17Rawt IC50, TR-FRET, biotinylated human IL-17A 5 nM, AF647-labeled human IL-17RA 30 nM
[9] = NHDF cells, IL-17AA 30 pM + TNF-α 6 pM, read-out: IL17AA + TNF IC50 IL-6
[10] = TR-FRET, 5 nM IL-17A, 30 nM IL-17RA, read-out: IL17AA FRET/ IL17Rawt IC50

Sequence of recombinant human IL-17AA (Q16552 24-155): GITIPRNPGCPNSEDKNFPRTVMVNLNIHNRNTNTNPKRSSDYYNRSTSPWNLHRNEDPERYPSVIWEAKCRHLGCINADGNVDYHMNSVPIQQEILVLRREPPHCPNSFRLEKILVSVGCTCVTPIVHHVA
Sequence of biotinylated human IL-17A / AF647-labeled human IL-17RA (Q16552 24-155): as above

SMILES	IC50 [1, 3] [nM]	IC50 [2, 4] [nM]	other results
Cc1c(-c2ccc(NC(=O)[C@@H](NC(=O)c3ccnn3C)C3CCC(F)(F)CC3)cc2)c(C(F)(F)F)cc[n+]1[O-] [Example 27, (S)-3-(4-(2-(4,4-difluorocyclohexyl)-2-(1-methyl-1H-pyrazole-5-carboxamido)acetamido)phenyl)-2-methyl-4-(trifluoromethyl)pyridine 1-oxide]	115	121	–
Cc1cc[n+]([O-])c(C)c1-c1ccc(NC(=O)[C@@H](NC(=O)c2ccoc2C)C2CCCCC2)cc1 [Example 53, (S)-3-(4-(2-cyclohexyl-2-(2-methylfuran-3-carboxamido)acetamido)phenyl)-2,4-dimethylpyridine 1-oxide]	86	16	–
Cc1ccnc(C)c1-c1ccc(NC(=O)[C@@H](NC(=O)c2ccnn2C)[C@@H]2CC=C(F)CC2)cc1 [compound 144, N-((S)-2-((4-(2,4-dimethylpyridin-3-yl)phenyl)amino)-1-((S)-4-fluorocyclohex-3-en-1-yl)-2-oxoethyl)-1-methyl-1H-pyrazole-5-carboxamide, reference compound]	–	–	IC50 [1, 5]: 715 nM; IC50 [2, 6]: 4180 nM
CCn1nccc1C(=O)NC(C(=O)Nc1ccc(-c2c(C(F)(F)F)cc[n+]([O-])c2C)cc1)C1CC2CC2C1 (single isomer, unassigned) [Example 64]	–	–	IC50 [1, 7]: 25 nM; IC50 [2, 8]: 74 nM
Cc1nocc1C(=O)N[C@H](C(=O)Nc1ccc(-c2c(C(F)(F)F)cc[n+]([O-])c2C)cc1)[C@H]1CCCC(F)(F)C1 [Example 9, 3-(4-((S)-2-((S)-3,3-difluorocyclohexyl)-2-(3-methylisoxazole-4-carboxamido)acetamido)phenyl)-2-methyl-4-(trifluoromethyl)pyridine 1-oxide]	4	60	–
Cc1c(-c2ccc(NC(=O)[C@@H](NC(=O)c3ccnn3C)C3CCCCC3)c(F)c2F)c(Cl)cc[n+]1[O-] [Example 62, 4-chloro-3-(4-((S)-2-cyclohexyl-2-(1-methyl-1H-pyrazole-5-carboxamido)acetamido)-2,3-difluorophenyl)-2-methylpyridine 1-oxide]	7	15	–
Cc1cc[n+]([O-])c(C)c1-c1ccc(NC(=O)[C@@H](NC(=O)c2ccnn2C)C2CCCCCC2)nc1 [Example 148, (S)-6′-(2-cycloheptyl-2-(1-methyl-1H-pyrazole-5-carboxamido)acetamido)-2,4-dimethyl-[3,3′-bipyridine] 1-oxide]	–	–	IC50 [1, 9]: 131 nM; IC50 [2, 10]: 125 nM
Cc1c(-c2ccc(NC(=O)[C@@H](NC(=O)c3ccnn3C)C3CCCCC3)cc2)cc(CO)c[n+]1[O-] [Example 115, (S)-3-(4-(2-cyclohexyl-2-(1-methyl-1H-pyrazole-5-carboxamido)acetamido)phenyl)-5-(hydroxymethyl)-2-methylpyridine 1-oxide]	201	1380	–
Cc1cc[n+]([O-])c(C)c1-c1ccc(NC(=O)[C@@H](NC(=O)c2ccn3c2CNCC3)C2CCCCCC2)cc1 [Example 189, (S)-3-(4-(2-cycloheptyl-2-(1,2,3,4-tetrahydropyrrolo[1,2-a]pyrazine-8-carboxamido)acetamido)phenyl)-2,4-dimethylpyridine 1-oxide]	–	–	IC50 [1, 9]: 15.5 nM; IC50 [2, 10]: 118 nM
CCn1nccc1C(=O)NC(C(=O)Nc1ccc(-c2c(Cl)cc[n+]([O-])c2C)c(F)c1)[C@H]1C[C@@H]2C[C@@H]2C1 (stereo partly drawn) [Example 58, 3-(4-(2-((1R,3s,5S)-bicyclo[3.1.0]hexan-3-yl)-2-(1-ethyl-1H-pyrazole-5-carboxamido)acetamido)-2-fluorophenyl)-4-chloro-2-methylpyridine 1-oxide]	12	44	–
Cc1ccnc(C)c1-c1ccc(NC(=O)[C@@H](NC(=O)c2ccnn2C)[C@H]2CCCc3ccccc32)cc1 [compound 136, N—((S)-2-((4-(2,4-dimethylpyridin-3-yl)phenyl)amino)-2-oxo-1-((S)-1,2,3,4-tetrahydronaphthalen-1-yl)ethyl)-1-methyl-1H-pyrazole-5-carboxamide, reference compound]	–	–	IC50 [1, 5]: 50 nM; IC50 [2, 6]: 117 nM
Cc1nocc1C(=O)N[C@H](C(=O)Nc1ccc(-c2cc(Cl)c[n+]([O-])c2C)cc1)C1CCC(F)(F)CC1 [Example 173, (S)-5-chloro-3-(4-(2-(4,4-difluorocyclohexyl)-2-(3-methylisoxazole-4-carboxamido)acetamido)phenyl)-2-methylpyridine 1-oxide]	–	–	IC50 [1, 9]: 1680 nM; IC50 [2, 10]: 659 nM
Cc1c(-c2ccc(NC(=O)C(NC(=O)c3ccnn3C)C3CCC(C(F)(F)F)CC3)cc2)c(Cl)cc[n+]1[O-] [Example 18, 4-chloro-2-methyl-3-(4-((S)-2-(1-methyl-1H-pyrazole-5-carboxamido)-2-((1r,4S)-4-(trifluoromethyl)cyclohexyl)acetamido)phenyl)pyridine 1-oxide]	28	25	–
Cc1cc[n+]([O-])c(C)c1-c1ccc(NC(=O)C(NC(=O)c2ccc3n2CCN(C)C3)C2CCC(C(F)(F)F)CC2)cc1 [Example 125, 2,4-dimethyl-3-(4-((S)-2-(2-methyl-1,2,3,4-tetrahydropyrrolo[1,2-a]pyrazine-6-carboxamido)-2-((1r,4S)-4-(trifluoromethyl)cyclohexyl)acetamido)phenyl)pyridine 1-oxide]	18	174	–
Cc1cc[n+]([O-])c(C)c1-c1ccc(NC(=O)[C@@H](NC(=O)c2ccnn2C)[C@H]2CCCc3ccccc32)cc1 [Example 1, 2,4-dimethyl-3-(4-((S)-2-(1-methyl-1H-pyrazole-5-carboxamido)-2-((S)-1,2,3,4-tetrahydronaphthalen-1-yl)acetamido)phenyl)pyridine 1-oxide]	4	8	–
Cc1c(-c2ccc(NC(=O)C(NC(=O)c3ccnn3C)C3CCC(C)CC3)cc2F)c(Cl)cc[n+]1[O-] [Example 56, 4-chloro-3-(2-fluoro-4-((S)-2-(1-methyl-1H-pyrazole-5-carboxamido)-2-((1r,4S)-4-methylcyclohexyl)acetamido)phenyl)-2-methylpyridine 1-oxide]	–	–	IC50 [1, 7]: 4 nM; IC50 [2, 8]: 21 nM
CC(=O)N1CCn2c(ccc2C(=O)N[C@H](C(=O)Nc2ccc(-c3c(C)c[n+]([O-])cc3C)cc2)C2CCCCCC2)C1 [Example 118, (S)-4-(4-(2-(2-acetyl-1,2,3,4-tetrahydropyrrolo[1,2-a]pyrazine-6-carboxamido)-2-cycloheptylacetamido)phenyl)-3,5-dimethylpyridine 1-oxide]	20	183	–
CC(=O)N1CCn2c(ccc2C(=O)N[C@H](C(=O)Nc2ccc(-c3c(C(F)(F)F)cc[n+]([O-])c3C)cc2)C2CCCCC2)C1 [Example 191, (S)-3-(4-(2-(2-acetyl-1,2,3,4-tetrahydropyrrolo[1,2-a]pyrazine-6-carboxamido)-2-cyclohexylacetamido)phenyl)-2-methyl-4-(trifluoromethyl)pyridine 1-oxide]	–	–	IC50 [1, 9]: 18.5 nM; IC50 [2, 10]: 128 nM
Cc1c(-c2ccc(NC(=O)C(NC(=O)c3ccnn3C)C3CCCC(F)C3)cc2)c(Cl)cc[n+]1[O-] (centres unmarked) [Example 182, 4-chloro-3-(4-(2-(3-fluorocyclohexyl)-2-(1-methyl-1H-pyrazole-5-carboxamido)acetamido)phenyl)-2-methylpyridine 1-oxide]	–	–	IC50 [1, 9]: 44.5 nM; IC50 [2, 10]: 61.2 nM
